According to patent US20230340149A1, “METHODS OF TREATMENT OF INFLAMMATORY BOWEL DISEASES” (INSERM (INSTITUT NATIONAL DE LA SANTÉ ET DE LA RECHERCHE …, priority 2020, published 2023):
Read-outs that look alike come from different tables or passages of the source.

Key:
[1] = in vivo, cited from earlier work
[2] = highly basic guanidine; cited from earlier work
[3] = tested on: thrombin activity in human colonic tissues from CD patients; assay: In situ zymography of thrombin activity on frozen colonic tissue sections; assay type: biochemical; conditions: CD patient colonic cryo-sections, 10 μM, data not shown
[4] = tested on: TNBS-induced colitis in rats; assay: TNBS-induced colitis in rats, daily intracolonic treatment; assay type: in vivo, rat; conditions: vs vehicle
[5] = cited from earlier work
cytochrome P450 enzymes = conditions: cited from earlier work
IBD patients = conditions: in vivo; cited from earlier work
mouse colon = assay: Daily intracolonic administration of thrombin in mice, inflammation parameters; assay type: in vivo
Method: Thrombin (specific activity 2000 NIH units/mg protein, T6884, Sigma) was administered daily for 10-days intracolonically daily (5 U/mouse in 50 μl in saline, 0.9% NaCl) under light anaesthesia (3% isoflurane) in PAR-1^−/−, PAR4^−/−, littermates and in mice purchased from Janvier laboratories. Controls received heat-inactivated thrombin (same dose, 10 minutes at 100° C.) or saline alone. After intracolonic instillation, mice were kept upside-down for 2-min to allow colonic diffusion of the administered solution. After 10-days, mice were sacrificed by cervical dislocation and inflammation parameters were measured.
TNBS colitis was induced in fasted rats as previously described^20,21. Animals were housed in ventilated cages, acclimatized for one week before experiment started and beddings were mixed twice. Briefly, TNBS was prepared at a final concentration of 120 mg/ml in 50% ethanol in saline and was kept in the dark before use. A catheter was inserted at 8 cm from the anus and 30 mg of the TNBS solution was instilled through the catheter into the lumen in a final volume of 250 μl/rat. For TNBS colitis induction in mice, fasted animals were lightly anesthetized with halothane. A polyethylene catheter was inserted intracolonically 4 cm from the anus and TNBS (2 mg/mouse in 100 μl) dissolved in a solution of saline plus 40% ethanol was pushed into the catheter. At time of the sacrifice, colonic tissues were harvested. Before opening the colon, luminal washes with a PBS solution were performed in order to measure thrombin activity in those washes. Colons were then cut opened. Macroscopic damage scores were evaluated as previously described^9, by a skilled observer unaware of the treatments. When observed, the following parameters were given score of 1: hemorrhage, edema, stricture, ulceration, fecal blood, mucus, and diarrhea. Erythema was scored a maximum of 2 depending on the length of the area being affected (0, absent; 1, less than 1 cm; and 2, more than 1 cm). Adhesion was scored based on its severity (0, absent; 1, moderate; and 2, severe). Colon thickness was measured using an electronic caliper (Mitutoyo, Mississauga, Canada, resolution 0.01 mm). MPO activity was measured as an index of granulocyte infiltration as previously described. Tissue samples were homogenized in a solution of 0.5% hexadecyltrimethylammonium bromide dissolved in phosphate buffer solution (pH 6.0) for 1 min. Homogenized tissues were centrifuged at 13 000 g for 2 min. Supernatants were added to a buffer supplemented with 1% hydrogen peroxide, and O-dianisidine dihydrochloride solution. Optical density readings were taken for 1 min at 30 s intervals at 450 nm^22. Results were normalized to total protein content and expressed as OD450 nm/min/μg/ml. For bacterial translocation assays, mesenteric lymph nodes were collected aseptically, weighed and homogenized before being plated at 37° C. in Columbia blood agar (BD Biosciences) for 24 h for aerobes, and for 48 h for anaerobes left in anaerobic jars^9. For permeability assays, mice received orally 4-kDa FITC Dextran (Sigma Aldrich) at the dose of 600 mg/kg body weight in PBS, and blood was collected 1-h after. Fluorescence for FITC-Dextran presence in serum was measured by spectrophotometry (excitation 485 nm, emission 528 nm)^23. Apoptosis was measured by TUNEL (terminal deoxynucleotidyl transferase dUTP nick end labeling) staining in mouse colonic tissues as previously described^24,25. Five random fields were captured per tissue section and percent of apoptotic cells was determined by an observer unaware of the treatments.

[6] = tested on: human mucosa-associated microbiota biofilms; assay: Adhesion of bacteria dispersed from thrombin-exposed human mucosal biofilms to Caco2 monolayers; assay type: cell-based; conditions: biofilms exposed to 1 U/ml
Method: Methods for FIG. 7. Panel A: Mucosa-associated microbiota was extracted from 4 healthy human colon biopsies (collected in Toulouse Hospital under ethic approval CODECOH Colic-DC2015-2443), under anaerobic condition, and were seeded into the Calgary Biofilm Device (Innovotech, Canada) to develop a multispecies biofilm. After 48 hours of incubation (37° C., anaerobic environment), biofilms were exposed to various concentrations of human thrombin (0, 10, 100 and 1000 milliunit/ml). After 24 hours, dispersed bacteria from thrombin-treated biofilms were collected and apically exposed to human epithelial monolayers on 12-wells plates (Caco2, ATCC HB37). Bacterial adhesion to epithelial surface was assessed. Briefly, after 90 minutes of co-culture, cells were vigorously washed in PBS, and lyzed in Triton X100 0.1% for 10 minutes, after which live cell bacteria were counted on Columbia blood agar (CFU were counted after 24 hours incubation of plates at 37° C.). Data represent fold change CFU/ml count compared to untreated controls (=1). ANOVA with Fisher's LSD test, *P<0.05, ***P<0.001.

[7] = tested on: adherent-invasive Escherichia coli (strain LF82) biofilms; assay: Adhesion and invasion of bacteria from thrombin-exposed E. coli LF82 biofilms on Caco2 monolayers; assay type: cell-based
Method: Panel B) Biofilms of adherent-invasive Escherichia coli (strain LF82) were formed into the Calgary Biofilm Device (Innovotech, Canada). After 48 hours of incubation (37° C., anaerobic environment), biofilms were exposed to various concentrations of human thrombin (0, 10, 100 to 1000 milliunit/ml). After 24 hours, dispersed bacteria from thrombin-treated biofilms were collected and apically exposed to human epithelial monolayers on 12-wells plates (Caco2, ATCC HB37). Bacterial adhesion to epithelial surface was assessed. Briefly, after 90 minutes of co-culture, cells were vigorously washed in PBS, and lyzed in Triton X100 0.1% for 10 minutes, after which live cell bacteria were counted on Columbia blood agar (CFU were counted after 24 hours incubation of plates at 37° C.). Data represent fold change CFU/ml count compared to untreated controls (=1). ANOVA with Fisher's LSD test, *P<0.05
Panel C) Mucosa-associated microbiota was extracted from 3 healthy human colon biopsies (collected in Toulouse Hospital under ethic approval CODECOH Colic-DC2015-2443), under anaerobic condition, and were seeded into the Calgary Biofilm Device (Innovotech, Canada) to develop a multispecies biofilm. After 48 hours of incubation (37° C., anaerobic environment), biofilms were exposed to human thrombin (0 and 100 milliunit/ml). […] Bacterial invasion into epithelial cells was assessed. […]

[8] = HAT 1, 2, 3 studies, HIT, versus historical controls
[9] = 50 μl of 100 U/ml per mouse daily for 10 days, vs vehicle (saline)

CC1CNc2c(cccc2S(=O)(=O)N[C@@H](CCCNC(=N)N)C(=O)N2CC[C@@H](C)C[C@@H]2C(=O)O)C1 (some centres unmarked) [Argatroban]
plasma half-life [1]: approximately 45 minutes | pKa [2]: 13

[H]/N=C(/N)c1ccc(NCc2nc3cc(C(=O)N(CCC(=O)O)c4ccccn4)ccc3n2C)cc1 [Dabigatran]
thrombin activity detected in tissue (VPR-AMC substrate) [3]: inhibited | MPO activity ([4]; 100 μl 5 μM): reducing significantly | colon thickness ([4]; 100 μl 5 μM): reducing significantly | macroscopic damage score ([4]; 100 μl 5 μM): reducing significantly | weight loss ([4]; 100 μl 5 μM): reducing significantly | blood in the feces (fecal bleeding score) [4]: reduced significantly | oral availability / oral activity [1]: not orally active

CCOC(=O)CN[C@@H](C(=O)N1CC[C@H]1C(=O)NCc1ccc(/C(N)=N\O)cc1)C1CCCCC1 [Ximelagatran]
hepatic toxicity ([5]; treatment for over 35 days): linked with the risk of hepatic toxicity

CCCCCCOC(=O)NC(=N)c1ccc(NCc2nc3cc(C(=O)N(CCC(=O)OCC)c4ccccn4)ccc3n2C)cc1 [dabigatran etexilate]
hepatic toxicity ([5]; long-term treatment): has not been linked with hepatic toxicity | interaction with cytochrome P450 enzymes (cytochrome P450 enzymes): lacks interaction | eliminated by the kidneys [1]: > 80% | plasma half-life [1]: approximately 12 hours

N=C(N)c1ccc(CNC(=O)[C@@H]2CCN2C(=O)[C@H](NCC(=O)O)C2CCCCC2)cc1 [melagatran]
oral availability / oral activity [1]: poorly orally available

bivalirudin
rate of bleeding compared to heparin ([5]; acute coronary syndrome): lower rate of bleeding | excreted by the kidneys [1]: about 20%

desirudin
bleeding rates versus heparin ([5]; in vivo): similar | rate of proximal deep vein thrombosis ([5]; in vivo): reduced | prevention of VTE ([5]; versus enoxaparin or unfractionated heparin): superior

heparin
benefit of treatment in IBD patients (IBD patients): some benefits

hirudin
incidence of bleeding compared with heparin ([5]; meta-analysis of 11 randomized trials, acute coronary syndrome): significantly higher incidence of bleeding | distributed in the extravascular compartment [1]: 80% | found in the plasma [1]: 20%

lepirudin
risk for major bleeding [5, 8]: increased | risk of new thrombosis [5, 8]: decreased

thrombin
translocation of aerobic bacteria into mesenteric lymph nodes (mouse colon; 50 μl of 100 U/ml per mouse daily for 10 days): caused the translocation | colon thickness (mouse colon; [9]): significant increase | macroscopic damage (mouse colon; [9]): caused macroscopic damage | damage score, wall thickness and MPO activity (mouse colon; PAR4-deficient mice): significantly reduced | macroscopic damage, colonic wall thickness and MPO activity (mouse colon; PAR-1-deficient mice): still exhibited significant | translocation of anaerobic bacteria (mouse colon; vs vehicle or boiled thrombin): not significantly different | potential to adhere to human intestinal epithelium monolayers [6]: increased | adhesion to human intestinal epithelium monolayers ([7]; biofilms exposed to 0.01 U/ml): adhered significantly more | ability to invade human intestinal epithelium monolayers ([7]; biofilms exposed to 0.1 U/ml): significantly increased
